Test results as given in paper PMC12298624, “Anti-Infective Properties, Cytotoxicity, and In Silico ADME Parameters of Novel 4′-(Piperazin-1-yl)benzanilides” (Pharmaceuticals, 2025).
Read-outs that look alike come from different tables or passages of the source.

Tests used:
[1] = tested on: HepG2 cells; test: Resazurin-based in vitro cytotoxicity with HepG2 cells; type: cell-based, human
In short: (§1)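 HepG2 cells, 5000 per well in DMEM with 1% FBS, exposed 48 h at 37° C to ten 3-fold dilutions (100.0–0.005 µM). Then 50 µM resazurin for 3 h, fluorescence read at 555/570 nm, IC50 calculated; doxorubicin as control.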

[2] = tested on: L-6 cells; test: Resazurin-based in vitro cytotoxicity with L-6 cells; type: cell-based, rat
In short: (§2)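 Compounds tested in eleven 3-fold serial dilutions from 100 to 0.002 µg/mL over 70 h incubation. IC50 obtained by linear regression from sigmoidal dose–inhibition curves.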

[3] = tested on: P. falciparum NF54; test: In vitro microplate assay against P. falciparum NF54 (3H-hypoxanthine incorporation); type: cell-based, Plasmodium falciparum; conditions: read-out: P.f.NF54 IC50
In short: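 Parasites exposed to eleven 3-fold drug dilutions spanning 100 to 0.002 µg/mL for 48 h, then ^3H-hypoxanthine (0.5 µCi/well) added for a further 24 h. Incorporated radioactivity counted by liquid scintillation after harvesting onto glass fiber filters. IC50 from sigmoidal inhibition curves by linear regression.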

[4] = Resazurin-based in vitro cytotoxicity with HepG2 cells; type: cell-based, human; conditions: HepG2 cells; human hepatocarcinoma cells, 48 h
In short: as §1

[5] = Resazurin-based in vitro cytotoxicity with L-6 cells; type: cell-based, rat; conditions: rat
In short: as §2

[6] = tested on: M. luteus ATCC 10240; test: MIC/MBC microbroth dilution (EUCAST); type: cell-based, Micrococcus luteus; conditions: for MBC: read-out: MBC
Description: (§3) Minimum inhibitory concentrations (MIC values) were obtained using the microbroth dilution method as stated in the EUCAST guidelines. Tests were conducted on cation adjusted Mueller–Hinton broth (caMHB) or agar (caMHA). These were prepared and stored following the manufacturer’s guidelines. Biological organisms were prepared via growth on either Luria–Bertani (LB) or cation adjusted Mueller–Hinton agar plates. These were grown for 24 h at 37 °C, except for Micrococcus luteus where MICs took longer to grow and as a consequence were read after 48 h once a clear positive control could be observed. For the MIC experiment, the bacteria were prepared using the McFarland 0.5 standard and diluted 1 in 100 or 1 in 10 in caMHB following EUCAST and CSLI guidelines for the preparation of bacteria. Testing of the compounds using the microbroth dilution method took place in 96-well plates. Serial 2-fold dilutions of compounds in caMHB covering a range from 256 µg/mL to 0.25 µg/mL were prepared. Bacteria preparations (McFarland) were added to the compound dilutions, further halving the compound concentrations. The plate was then incubated for 18 h at 37 °C. Controls for the MIC experiments included a bacterial growth (positive) control of bacteria and caMHB only and a media only (negative) control. After incubation, the plates were read, whereby the positive control of bacteria was visible and the negative control was clear of contamination. The last clear well, where there is no growth of bacteria, was counted as the MIC value. […] The lowest concentration without any bacterial growth was counted as the MBC value. The following pathogens were used: Pseudomonas aeruginosa NCTC 13437, Escherichia coli NCTC 13353, Bacillus subtilis 168a, Serratia marcescens NCTC 9940, Micrococcus luteus ATCC 10240, Staphylococcus aureus JE2 USA 300, Acinetobacter baumannii ATCC 19606, and Klebsiella pneumoniae ATCC 700603. A concentration range of 256 µg/mL to 0.25 µg/mL of a combination of ciprofloxacin and meropenem against E. coli 25922 was used as an antibiotic control to ensure correct dilution and performance of the assay.

[7] = tested on: E. coli NCTC 13353; test: MIC/MBC microbroth dilution (EUCAST); type: cell-based, Escherichia coli; conditions: Escherichia coli; for MBC: NCTC13353; for MIC: NCTC13353, read-out: MIC
Description: as §3

[8] = Parallel artificial membrane permeability assay (PAMPA); conditions: PAMPA, PBS pH 7.4, 200 µM, 5 h, room temperature; for Papp at 5 h, 200 µM: pH 7.4, Pe
In short: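 Passive permeability was measured across a lipid–oil–lipid triple-layer membrane with 200 µM final compound in PBS pH 7.4 in the donor, PBS in the acceptor, 5 h at room temperature, quadruplicates. Donor and acceptor concentrations were read by UV absorbance (200–300 nm); data accepted only when recovery exceeded 70%.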

[9] = tested on: S. marcescens NCTC 9940; test: MIC/MBC microbroth dilution (EUCAST); type: cell-based; conditions: Serratia marcescens, NCTC9940
Description: as §3

[10] = tested on: K. pneumoniae ATCC 700603; test: MIC/MBC microbroth dilution (EUCAST); type: cell-based; conditions: Klebsiella pneumoniae, ATCC700603
Description: as §3

[11] = tested on: S. aureus JE2 USA 300; test: MIC/MBC microbroth dilution (EUCAST); type: cell-based; conditions: Staphylococcus aureus, USA300, S. aureus JE2 USA 300
Description: as §3

[12] = tested on: P. aeruginosa NCTC 13437; test: MIC/MBC microbroth dilution (EUCAST); type: cell-based; conditions: Pseudomonas aeruginosa, NCTC13437
Description: as §3

[13] = tested on: A. baumannii ATCC 19606; test: MIC/MBC microbroth dilution (EUCAST); type: cell-based, Acinetobacter baumannii; conditions: Acinetobacter baumannii; for MBC: ATCC19606; for MIC: ATCC19606, read-out: MIC
Description: as §3

[14] = tested on: B. subtilis 168a; test: MIC/MBC microbroth dilution (EUCAST); type: cell-based, Bacillus subtilis; conditions: Bacillus subtilis, 168A; for MIC: read-out: MIC
Description: as §3

[15] = tested on: P. falciparum NF54; parameters: method as in PMID 34832891, PMID 36558954; conditions: Figure 1, earlier studies; ref [12],[13]; read-out: PfNF54 IC50; cited from earlier work
[16] = Micrococcus luteus, ATCC10240, M. luteus ATCC 10240
[17] = Micrococcus luteus, ATCC10240, M. luteus ATCC 10240, read-out: MIC
[18] = Plasmodium falciparum, NF54, chloroquine-sensitive strain NF54, erythrocytic stages

Compound | IC50 at 48 h [4] | IC50 at 70 h [5] | MIC [6, 17] | MBC [7] | MIC [7] | Papp at 5 h, 200 µM [8] | MBC [9] | MIC [9] | MBC [10] | MIC [10] | MBC [11] | MIC [11] | MBC [12] | MIC [12] | MBC [13] | MIC [13] | MBC [14] | MIC [14] | IC50 [3, 18] | IC50 [15] | also measured
2-(4-Fluorophenoxy)-N-[4-(pyrrolidin-4-yl)phenyl]-3-(trifluoromethyl)benzamide [Compound 34] | – | – | – | – | – | – | – | – | – | – | – | – | – | – | – | – | – | – | – | – | IC50 [1]: 39.8 µM; IC50 [2]: 185 µM; IC50 ([3]; chloroquine-sensitive strain NF54, erythrocytic stages): 1.68 µM
O=C(Nc1ccc(N2CCNCC2)cc1)c1cccc(C(F)(F)F)c1Oc1ccccc1 [Compound 58, 2-Phenoxy-N-[4-(piperazin-1-yl)phenyl]-3-(trifluoromethyl)benzamide] | 5.8 µM | 25.9 µM | 128 µg/mL | > 256 µg/mL | > 256 µg/mL | 4.98 ×10⁻⁶ cm/s | > 256 µg/mL | > 256 µg/mL | 256 µg/mL | 256 µg/mL | 128 µg/mL | 128 µg/mL | > 256 µg/mL | > 256 µg/mL | > 256 µg/mL | 256 µg/mL | 256 µg/mL | 128 µg/mL | 3.81 µM | – | MBC [6, 16]: 128 µg/mL
O=C(Nc1ccc(N2CCNCC2)cc1)c1cccc([N+](=O)[O-])c1Oc1ccc(F)cc1 [Compound 61, 2-(4-Fluorophenoxy)-3-nitro-N-[4-(piperazin-1-yl)phenyl]benzamide] | 29.8 µM | 43.8 µM | 128 µg/mL | > 256 µg/mL | > 256 µg/mL | 8.36 ×10⁻⁶ cm/s | > 256 µg/mL | > 256 µg/mL | > 256 µg/mL | 256 µg/mL | > 256 µg/mL | 128 µg/mL | > 256 µg/mL | > 256 µg/mL | > 256 µg/mL | 256 µg/mL | > 256 µg/mL | 256 µg/mL | 4.1 µM | – | MBC [6, 16]: 128 µg/mL
O=C(Nc1ccc(N2CCNCC2)cc1)c1cccc(C(F)(F)F)c1Sc1ccc(F)cc1 [Compound 62, 2-[(4-Fluorophenyl)sulfanyl]-N-[4-(piperazin-1-yl)phenyl]-3-(trifluoromethyl)benz-amide] | 9.3 µM | 13.1 µM | 128 µg/mL | > 256 µg/mL | > 256 µg/mL | 6.51 ×10⁻⁶ cm/s | > 256 µg/mL | > 256 µg/mL | 256 µg/mL | 256 µg/mL | 128 µg/mL | 128 µg/mL | > 256 µg/mL | > 256 µg/mL | > 256 µg/mL | 256 µg/mL | 256 µg/mL | 128 µg/mL | 1.66 µM | – | MBC [6, 16]: 128 µg/mL; Pe [8]: 4.41 10^−6 cm/s
O=C(Nc1ccc(N2CCNCC2)cc1)c1ccccc1Oc1ccccc1 [Compound 64, 2-Phenoxy-N-[4-(piperazin-1-yl)phenyl]benzamide] | 12.3 µM | 40.6 µM | 16 to 64 µg/mL | > 256 µg/mL | > 256 µg/mL | 7.67 ×10⁻⁶ cm/s | > 256 µg/mL | > 256 µg/mL | > 256 µg/mL | 256 µg/mL | 64 µg/mL | 32 µg/mL | > 256 µg/mL | > 256 µg/mL | > 256 µg/mL | 256 µg/mL | 256 µg/mL | 128 µg/mL | 2.33 µM | – | MIC ([6]; M. luteus ATCC 10240): 32 µg/mL
Nc1cccc(C(=O)Nc2ccc(N3CCNCC3)cc2)c1Oc1ccc(F)cc1 [Compound 65, 3-Amino-2-(4-fluorophenoxy)-N-[4-(piperazin-1-yl)phenyl]benzamide] | > 100 µM | 157 µM | > 256 µg/mL | > 256 µg/mL | > 256 µg/mL | 5.76 ×10⁻⁶ cm/s | > 256 µg/mL | > 256 µg/mL | > 256 µg/mL | > 256 µg/mL | 256 µg/mL | 256 µg/mL | > 256 µg/mL | > 256 µg/mL | > 256 µg/mL | > 256 µg/mL | > 256 µg/mL | > 256 µg/mL | 7 µM | – | MBC [6, 16]: > 256 µg/mL
CC(C)(C)OC(=O)N1CCN(c2ccccc2NC(=O)c2cccc(C(F)(F)F)c2Oc2ccc(F)cc2)CC1 [MMV030666, tert-Butyl-4-{2-[2-(4-fluorophenoxy)-3-(trifluoromethyl)benzamido]phenyl}pipera-zine-1-carboxylate] | – | – | – | – | – | – | – | – | – | – | – | – | – | – | – | – | – | – | – | 0.41 µM | –
CC(C)(C)OC(=O)N1CCN(c2ccc(NC(=O)c3cccc(C(F)(F)F)c3Sc3ccc(F)cc3)cc2)CC1 [derivate III] | – | – | – | – | – | – | – | – | – | – | – | – | – | – | – | – | – | – | – | 0.15 µM | –
CC(C)(C)C(=O)N1CCN(c2ccc(NC(=O)c3cccc(C(F)(F)F)c3Oc3ccc(F)cc3)cc2)CC1 [derivate II] | – | – | – | – | – | – | – | – | – | – | – | – | – | – | – | – | – | – | – | 0.58 µM | –
CC(C)(C)OC(=O)N1CCN(c2ccc(NC(=O)c3cccc(C(F)(F)F)c3Nc3ccc(F)cc3)cc2)CC1 [derivate IV] | – | – | – | – | – | – | – | – | – | – | – | – | – | – | – | – | – | – | – | 0.54 µM | –
CC(C)(C)OC(=O)N1CCN(c2ccc(NC(=O)c3cccc(C(F)(F)F)c3Oc3ccc(F)cc3)cc2)CC1 [derivate I] | – | – | – | – | – | – | – | – | – | – | – | – | – | – | – | – | – | – | – | 0.27 µM | –
